Drawing on the METLIN SMRT retention time set (Domingo-Almenara et al. 2019), this text covers RP-LC retention time for 78 molecules.

Molecules are shown by their SMILES.

The series in a line: gradient 5% acetonitrile 3 min, to 50% in 2 min, to 85% in 15 min, held 3 min, 100 µL/min. The settings on record: column: Zorbax Extend-C18 2.1 x 50 mm; eluents: water / acetonitrile, 0.1% formic acid. The procedure, abridged: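 A Zorbax Extend-C18 column (2.1 × 50 mm, 1.8 μm) run at 100 μL/min with water and acetonitrile, both containing 0.1% formic acid, separated mixtures of ~100 pure standards. The HPLC was coupled to a quadrupole time-of-flight mass spectrometer operated in positive and negative ionization mode, with dead and dwell volumes of 40 μL and 900 μL. Each retention time was taken from a computationally picked adduct peak that was then manually inspected.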
As for `CCNC(=O)C1CCN(c2nc3ccc(-c4cccs4)nc3s2)CC1`, the RP-LC retention time turned out to be 815 s. Then `O=C(NC1CCN(c2cc(-c3ccc(F)cc3)[nH]n2)C1)c1ccncc1` (stereo not drawn), with 611 s; and `COc1ccc(CNC(=O)c2nnc(-c3ccc(S(=O)(=O)N(C)C)cc3)o2)c(OC)c1`, with 865 s; and `COc1cc(CNCCSc2nnnn2C)cc(Br)c1OCc1ccccc1`, with 744 s. For `COc1ccc(N2C(=O)CCS2(=O)=O)cc1S(=O)(=O)N1CCC(C(N)=O)CC1` the value was 612 s. For `O=C(Nc1cc(-c2ccccn2)no1)c1cccc(Br)c1` the value was 894 s; for `CCc1ccc(CNC(=O)c2cc3n(n2)CC(C)(C(=O)NC2CCCC2)N(CC)C3=O)cc1` (stereo not drawn), 865 s. With `CCn1c(=O)c2c(C(=O)N3CCN(c4ccccn4)CC3)cc(=O)n(CC)c2n(C)c1=O`, the RP-LC retention time amounted to 617 s. Then `CS(=O)(=O)N1C[C@H]2CCN(Cc3cn[nH]c3-c3ccccc3)C[C@H]21`, with 574 s.

For the molecule `Cc1cc(C(=O)NC(C)C)c2cc(Br)ccc2n1`, the RP-LC retention time is 702 s. For `Cc1nn(Cc2cccc(C(=O)Nc3nc(-c4ccccc4)cs3)c2)c(C)c1Cl` the value was 1160 s. With `Cc1ccc(-n2c(=O)c3c(cc(C)n3C)n(CC(=O)Nc3ccc(C)cc3Cl)c2=O)cc1`, the RP-LC retention time stood at 960 s.

`O=C(NCc1ccccn1)C1c2ccccc2C(=O)N(Cc2ccccc2)C12CCCC2` (stereo not drawn) registered an RP-LC retention time of 704 s. Then `Fc1cccc(-c2noc(CSc3nccn3-c3ccccc3)n2)c1`, with 916 s; and `CCCN1C(=O)COc2ccc(-c3noc(Cc4c[nH]c5ccccc45)n3)cc21`, with 1040 s. Then `O=C(c1cccc(F)c1)N1CCN(S(=O)(=O)c2cc3c4c(c2)CCC(=O)N4CCC3)CC1`, with 784 s. `CC(=O)N1CCc2cc(N3CC(C(=O)N(C)Cc4ccccc4)CC3=O)ccc21` (stereo not drawn) showed an RP-LC retention time of 697 s. For `COc1cc(OC)c(/C=C2/C(=O)Nc3ccccc32)c(OC)c1` the value was 986 s.

`CCOC(=O)c1cnc2nc(C)ccc2c1Nc1cccc(Cl)c1F`: the RP-LC retention time worked out at 764 s. Then `O=C(CSCc1ccccc1)NCCS(=O)(=O)N1CCN(c2ncccn2)CC1`, with 746 s. For `O=C(c1cnn2c(-c3ccc4c(c3)OCO4)ccnc12)N1CCN(c2ccccc2)CC1` the value was 864 s. Then `Nc1c(C(=O)NCC2CC2)nsc1C(=O)O`, with 770 s; and `COc1ccc(C(=O)N2C[C@@H]3C[C@H]2C[C@@H]3NC(=O)c2ccccc2)cc1OC`, with 678 s; and `COc1ccccc1NC(=O)N1CCCC1c1nc(-c2cccc(Cl)c2)no1` (stereo not drawn), with 941 s.

Molecule `Cc1cnc(C(=O)NC2C[C@H]3CC[C@@H](C2)N3C(=O)C2CC2)cn1` (stereo partly drawn) gave an RP-LC retention time of 606 s. Then `Cc1ccccc1-c1noc(Cn2c(=O)n(-c3ccccc3C)c(=O)c3sccc32)n1`, with 1050 s. For `O=C(c1cc(-c2ccncc2)n[nH]1)N1CCCC(C(=O)N2CCN(c3ncccn3)CC2)C1` (stereo not drawn) the value was 579 s. For `COc1cc(NC(=O)Cn2cc(-c3nnc(C)o3)c3ccccc32)cc(OC)c1`, the RP-LC retention time was 809 s.

Molecule `Cc1nccn1Cc1nc(-c2ccc(Br)cc2)no1` came in with an RP-LC retention time of 663 s. For `CN1C(=O)c2cc(C(=O)N3CCN(c4ncccn4)CC3)nn2CC1(C)C(=O)NC1CCCCC1` (stereo not drawn) the value was 702 s. For `Cc1ccc(CNC(=O)C2(C)CN(S(C)(=O)=O)CC(=O)N2Cc2ccc(F)cc2)cc1` (stereo not drawn) the value was 836 s; for `COc1ccc(NC(=O)c2cc(C)n3nc(-c4ccsc4)cc3n2)cc1`, 1120 s; for `CCn1ccc(NC(=O)c2ccccc2C)n1`, 720 s. For `CCOc1cc(-c2noc(-c3ncn4c3COC(c3ccc(F)cc3)C4)n2)ccc1OC` (stereo not drawn) the value was 1040 s; for `COc1cccc(-c2ccc(=O)n(CCc3nc(-c4ccc(F)cc4)no3)n2)c1`, 981 s; for `Cc1ccc2[nH]cc(CCNC(=O)CCC(=O)N3CCSc4c3c(C)nn4-c3ccccc3)c2c1`, 896 s. Molecule `Cc1cc(C)c(S(=O)(=O)N2CCCC2c2nc(-c3ccccc3C)no2)c(C)c1` (stereo not drawn) came in with an RP-LC retention time of 1330 s.

As for `CC1(C)C(=O)N(CC(=O)N2CCN(c3ccccn3)CC2)c2ccccc21`, the RP-LC retention time came out at 600 s.

For `CCn1c(C2CCN(S(=O)(=O)c3ccc4c(c3)CCCC4)C2)nc2ccncc21` (stereo not drawn), the RP-LC retention time was 585 s. Then `Cc1cc(C(=O)NCc2ccco2)c2cccc(-c3ccccc3)c2n1`, with 936 s; and `CCN1c2ccc(C)cc2C(=O)NC12CCN(C(=O)c1ccc(OC)cc1OC)CC2`, with 774 s; and `CC(C(=O)Nc1ccc(F)c(F)c1)C1CCN(C(=O)Nc2ccc(Cl)cc2)CC1` (stereo not drawn), with 984 s. For `Cc1noc(C)c1S(=O)(=O)N1CCc2c(c(-c3nnc(-c4ccc(F)cc4)o3)nn2C)C1` the value was 910 s; for `CCOc1ccc(-c2noc(CN3C(=O)COc4ccc(C(C)(C)C)cc43)n2)cc1OC`, 1230 s; for `COCCN1C(=O)[C@H]2CN(Cc3ccc(OC)c(OC)c3Cl)C[C@H]2C1=O`, 620 s. Molecule `O=C(CN1c2ccc(F)cc2-c2ccccc2S1(=O)=O)N1CCN(Cc2ccccc2)CC1` yielded an RP-LC retention time of 711 s. Then `O=C(NC1CC1)c1nnn(-c2ccccc2)c1-c1cccnc1`, with 691 s; and `O=C(Cn1c(=O)n(-c2ccccc2)c2ncccc21)NCCN1CCCCC1`, with 585 s; and `Cc1ccc(C2Cn3cnc(C(=O)N4CCC(C(=O)NC(C)c5ccccc5)CC4)c3CO2)cc1` (stereo not drawn), with 756 s. In turn, `O=c1c2sccc2n(Cc2nc(-c3cccc(C(F)(F)F)c3)no2)c(=O)n1-c1ccc(F)cc1` displayed an RP-LC retention time of 1070 s.

Molecule `CCC1CN2C=Nc3oc(C)c(C(=O)Nc4cccc(Cl)c4)c3C2=N1` (stereo not drawn) displayed an RP-LC retention time of 695 s.

`Cc1cn(C)c(CC(=O)NCc2cccs2)c1C(=O)O` returned an RP-LC retention time of 693 s. For `Cc1nnc(-c2cc(C)n(CC(=O)Nc3ccc(Cl)cc3C)c2C)o1` the value was 810 s; for `COc1ccccc1-c1nnc(NC(=O)c2ccc3c(c2)CCCC3)o1`, 822 s. For `O=C(c1ccc(Cl)cc1)N1CCN(c2ccc([N+](=O)[O-])c3ncccc23)CC1` the value was 957 s.

In turn, `O=C(NCC1CCN(C(=O)Oc2ccccc2)CC1)C(=O)Nc1ccon1` registered an RP-LC retention time of 741 s. For `OCCOCCNCc1ccc(-c2ccc(F)cc2)o1` the value was 620 s; for `COc1ccc2c(c1)C1(CCN(C(=O)Nc3ccc(F)cc3)C1)C(=O)N2` (stereo not drawn), 683 s.

The molecule `O=c1c2cc3c(cc2nc(SCc2nc(-c4ccc(F)cc4)no2)n1Cc1ccncc1)OCO3` registered an RP-LC retention time of 799 s. The molecule `Cc1c(CCC(=O)NCC2CCCO2)c(=O)n2nc(-c3ccccc3)nc2n1C` (stereo not drawn) registered an RP-LC retention time of 668 s. Then `Cn1c(=O)c2c(ncn2CC(=O)Nc2cccc(N3CCCS3(=O)=O)c2)n(C)c1=O`, with 595 s; and `Cc1c(Cl)cccc1N1C(=O)CN(S(C)(=O)=O)CC1(C)C(=O)NC1CCCCCC1` (stereo not drawn), with 938 s; and `CC(C)c1cc(C(=O)Nc2ccc(F)cc2)nc2ccnn12`, with 1090 s. In the case of `CC(C)OCCCNC(=O)C1CCN(S(=O)(=O)c2ccc3c(c2)CCCC(=O)N3)CC1`, the RP-LC retention time stood at 674 s.

Molecule `CCCCn1cc(S(=O)(=O)NCc2ccccc2)c2cccnc21` displayed an RP-LC retention time of 946 s. For `CCCN1C(=O)COc2ccc(-c3noc(-c4cccc(OC)c4OC)n3)cc21` the value was 1160 s; for `CC(C)(C)c1ccc(C(=O)Nc2nc3ccccc3[nH]2)cc1`, 778 s. Turning to `Cn1cnc2cc(-c3noc(CNC(=O)Cc4ccc(Cl)cc4)n3)ccc21`, the RP-LC retention time stood at 652 s. For the molecule `COc1ccc(NC(=O)c2cc(S(=O)(=O)N3CCCC(C)C3)cn2C)c(OC)c1` (stereo not drawn), the RP-LC retention time is 1010 s.

Consider `CC1(C(=O)NCc2ccccc2)CN(S(=O)(=O)c2ccccc2)CC(=O)N1C1CCCCC1` (stereo not drawn), for which the RP-LC retention time was found to be 992 s. Then `CCCNC(=O)C1CCCN(c2nc3ncn(CC(=O)Nc4ccc5c(c4)OCO5)c(=O)c3s2)C1` (stereo not drawn), with 640 s. Then `COc1cccc(Nc2c(-c3ccc(N(C)C)cc3)nc3cnccn23)c1`, with 771 s; and `O=C(CCc1ccccc1)Nc1c(-c2ccccc2)nc2ccccn12`, with 663 s; and `CN(C)S(=O)(=O)c1ccc(C(=O)NCc2ccsc2)cc1`, with 730 s.

For the molecule `COc1ccc(OC)c(NC(=O)c2nc(N(C)C)c3c(C)cc(C)nc3n2)c1`, the RP-LC retention time came out at 676 s.

`CCSc1nnc(NC(=O)CCc2c(C)n[nH]c2C)s1` showed an RP-LC retention time of 584 s.

On to `O=C1C[C@@H]2OCC=C3C[N+]4([O-])CC[C@]56c7ccccc7N1[C@H]5[C@H]2[C@H]3C[C@@H]64` (stereo partly drawn), for which the RP-LC retention time was 639 s.

With `CCc1cccc(NC(=O)N(C)CC2CCOCC2)c1`, the RP-LC retention time amounted to 795 s.
